Test results taken from article PMC8973362, “5-(Sulfamoyl)thien-2-yl 1,3-oxazole inhibitors of carbonic anhydrase II with hydrophilic periphery” (Journal of Enzyme Inhibition and Medicinal Chemistry, 2022).
pKi: −log10 of the molar value. Where two headings read alike, the source gives them in different places.

How the values were obtained:
hCA I = biological target: T1, hCA I (Homo sapiens, UniProt P00915); assay: stopped-flow CO2 hydrase assay, hCA I; type: biochemical
T1 construct: made in house

hCA IV = biological target: T2, hCA IV (Homo sapiens, UniProt P22748); assay: stopped-flow CO2 hydrase assay, hCA IV; type: biochemical
T2 construct: made in house

hCA XII = biological target: T3, hCA XII (Homo sapiens, UniProt O43570); assay: stopped-flow CO2 hydrase assay, hCA XII; type: biochemical
T3 construct: made in house

hCA II = biological target: T4, hCA II (Homo sapiens, UniProt P00918); assay: stopped-flow CO2 hydrase assay, hCA II; type: biochemical
T4 construct: made in house

intraocular pressure = intraocular pressure (IOP) lowering in normotensive rabbits; type: in vivo; settings: 1% eye drop, normotensive New Zealand White rabbits, n = 6, tested twice; comparable to 1 (dorzolamide, 2% eye drops)

T3 sequence (O43570 25-354): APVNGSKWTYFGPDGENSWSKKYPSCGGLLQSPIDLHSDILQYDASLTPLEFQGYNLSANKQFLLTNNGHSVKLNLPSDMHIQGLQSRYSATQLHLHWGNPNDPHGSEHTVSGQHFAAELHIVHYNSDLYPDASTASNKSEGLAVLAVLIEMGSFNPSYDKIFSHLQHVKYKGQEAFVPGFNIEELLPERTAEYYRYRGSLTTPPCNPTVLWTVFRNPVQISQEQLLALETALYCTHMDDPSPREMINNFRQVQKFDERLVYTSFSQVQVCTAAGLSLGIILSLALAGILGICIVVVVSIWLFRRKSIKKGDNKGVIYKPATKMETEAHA
T2 sequence (P22748 19-312): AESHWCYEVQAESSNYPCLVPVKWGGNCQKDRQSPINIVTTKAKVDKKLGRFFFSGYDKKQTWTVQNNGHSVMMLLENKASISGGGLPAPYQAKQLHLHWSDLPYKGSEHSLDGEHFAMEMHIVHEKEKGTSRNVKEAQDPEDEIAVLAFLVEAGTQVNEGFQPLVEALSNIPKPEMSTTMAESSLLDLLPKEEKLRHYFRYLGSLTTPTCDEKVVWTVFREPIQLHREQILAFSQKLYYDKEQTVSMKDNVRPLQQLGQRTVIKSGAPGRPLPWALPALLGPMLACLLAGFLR
T1 sequence (P00915 whole entry): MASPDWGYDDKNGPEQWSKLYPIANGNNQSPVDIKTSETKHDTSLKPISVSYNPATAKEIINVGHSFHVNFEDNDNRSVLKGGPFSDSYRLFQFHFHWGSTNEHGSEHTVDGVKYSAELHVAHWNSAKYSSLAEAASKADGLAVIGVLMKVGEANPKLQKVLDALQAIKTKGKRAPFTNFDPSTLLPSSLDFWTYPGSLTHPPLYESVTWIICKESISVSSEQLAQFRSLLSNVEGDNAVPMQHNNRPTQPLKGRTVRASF

pKi (hCA I; mean from three assays by stopped flow technique, errors ± 5–10%, read-out: Ki hCA I)	pKi (hCA IV; mean from three assays by stopped flow technique, errors ± 5–10%, read-out: Ki hCA IV)	pKi (hCA XII; mean from three assays by stopped flow technique, errors ± 5–10%, read-out: Ki hCA XII)	pKi (hCA II; mean from three assays by stopped flow technique, errors ± 5–10%, read-out: Ki hCA II)	SMILES	pKi (hCA I)	pKi (hCA IV)	pKi (hCA XII)	pKi (hCA II)	IOP lowering effect (intraocular pressure)
–	–	–	–	NS(=O)(=O)c1ccc(-c2cnc(C(=O)N3CCNCC3)o2)s1 [7a]	8.40	7.67	8.41	10.16	clear IOP lowering effect
–	–	–	–	NS(=O)(=O)c1ccc(-c2cnc(C(=O)NC3CCNCC3)o2)s1 [7b]	7.25	–	8.05	–	–
–	–	–	–	NC1CCN(C(=O)c2ncc(-c3ccc(S(N)(=O)=O)s3)o2)CC1 [7c]	7.50	7.51	8.24	9.39	–
–	–	–	–	NCCNC(=O)c1ncc(-c2ccc(S(N)(=O)=O)s2)o1 [7d]	7.14	–	8.03	–	–
7.23	8.34	8.06	8.51	NCCCNC(=O)c1ncc(-c2ccc(S(N)(=O)=O)s2)o1 [7e]	–	–	–	–	–
